Results from patent publication US20240336647A1, “NUCLEOSIDE ANALOGS AND THERAPEUTIC USE THEREOF” (priority 2023, published 2024).
“Also recorded” adds a separate entry of the source.

Columns and labels:
SARS-COV-2 RdRp [1] = target: T1, SARS-COV-2 RdRp (Severe acute respiratory syndrome coronavirus 2, UniProt P0DTD1); assay: Primer extension to determine if m1A is incorporated onto RNA by RdRp via m1ATP (PAGE); format: biochemical; conditions: CTP, 37° C.
Description: Determine if the m1A or m3C modification could be incorporated onto RNA or DNA by a polymerase via m1ATP or m3CTP, respectively: The SARS-COV-2 RdRp with m1ATP is used as the example. Sources of materials used in the experiment can be found in reference [Apostle et al Preprints doi:10.20944/preprints202311.1268.v1]. RNA duplex [F038]-[F039] (SEQ ID NOs: 12 and 13, FIG. 2) was prepared by annealing the two RNAs using the following procedure. The solution of RNAs [F038] (SEQ ID NO: 12, 20 μM, all concentrations are final) and [F039] (SEQ ID NO: 13, 20 μM) in Tris-HCl (10 mM), and KCI (100 mM) was heated at 94° C. for 5 min. The solution was then cooled to RT slowly giving the [F038]-[F039] (SEQ ID NOs: 12 and 13) duplex. […] To another tube containing only the RNA duplex in 10 μL nuclease free water ([…], corresponding to the experiment of lane 1 in FIG. 2) were also added the EDTA and loading dye solutions (same quantities as above, final volume 30 μL). […]
The results of the primer extension reaction is shown in FIG. 2, gel image for determining if m1A could be incorporated onto RNA by SARS-COV-2 RdRp via m1ATP. […] The reaction products were analyzed with PAGE. […]

SARS-COV-2 RdRp [2] = target: T1, SARS-COV-2 RdRp; format: biochemical

SMILES | inhibition of RdRp by m1ATP (SARS-COV-2 RdRp [1]; m1ATP only for 15 min, then ATP, GTP and UTP) | incorporation of m1A into RNA by RdRp via m1ATP (SARS-COV-2 RdRp [1]; m1ATP, GTP, UTP 0.5 mM each, no ATP, 2 h) | effect of the modification in template RNA on RdRp catalytic activity (SARS-COV-2 RdRp [2])
C[n+]1cnc2c(ncn2[C@@H]2O[C@H](COP(=O)(O)OP(=O)(O)OP(=O)(O)O)C(O)C2O)c1N (stereo partly drawn) [m1ATP] | does not inhibit RdRp | m1A can be incorporated into RNA by SARS-COV-2 RdRp via m1ATP; also recorded: m1A could indeed be efficiently incorporated into RNA by SARS-COV-2 RdRp; also recorded: m1A can be incorporated onto RNA | 
C[n+]1c(N)ccn([C@@H]2O[C@H](CO)C(O)C2O)c1=O (stereo partly drawn) [m3C, N3-methylcytidine] |  |  | has minimal impact; also recorded: can be tolerated by the RdRp; also recorded: has little effect on the RdRp
